Experimental data as given in patent US11850259B2, “Methods of treating viral infections affecting the respiratory tract using topically administered lithium agents” (United States Government as Represented by the Department …, priority 2020, dated 2023).
Like-named read-outs stand apart in the source and are kept apart here.

Columns and labels:
[1] = serum of subjects tested; cited from earlier work
[2] = test system: MSU-induced gout in the rat ankle; conditions: photomicrograph at 2-times magnification after topical administration
From the text: It was anticipated that the pathology may bring additional clarity to show lithium carbonate's action on the cytokine storm. Rat ankle samples banked in formalin were sent for microscopic analysis.

[3] = applied to the epithelium of the skin, gout model
From the text: Once that occurred, the lithium acted on the tissues and blood vessels surrounding the joint, preventing the entry of the inflammatory cells into the joint.

[4] = test system: MSU-induced gout in the rat ankle; conditions: for KC-GRO (KC/GRO) level: synovial fluid, eight hours post MSU-induced gout
GSK3B = GSK3B (Homo sapiens, UniProt P49841); conditions: in neutrophils; cited from earlier work
[5] = BRT rat MSU model, eight hours post MSU, topical application

Chain of GSK3B (P49841 whole entry, species assumed): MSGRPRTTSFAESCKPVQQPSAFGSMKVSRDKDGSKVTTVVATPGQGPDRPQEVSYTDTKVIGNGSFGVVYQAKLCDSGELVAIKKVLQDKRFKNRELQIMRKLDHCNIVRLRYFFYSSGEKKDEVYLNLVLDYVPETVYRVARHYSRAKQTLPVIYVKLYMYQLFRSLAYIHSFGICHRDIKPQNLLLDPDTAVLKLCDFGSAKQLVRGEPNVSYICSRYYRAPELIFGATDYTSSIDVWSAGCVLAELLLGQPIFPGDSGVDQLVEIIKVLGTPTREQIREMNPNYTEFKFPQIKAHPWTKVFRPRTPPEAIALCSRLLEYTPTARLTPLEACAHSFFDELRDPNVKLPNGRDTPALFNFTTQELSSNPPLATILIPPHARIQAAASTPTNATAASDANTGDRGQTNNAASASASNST

O=C([O-])[O-].[Li+].[Li+] [lithium carbonate]
IL-1β in serum [1]: consistent increase | IL-6 in serum [1]: consistent increase | TNF-α in serum [1]: consistent increase | Edema [2]: minimal edema | Raft of white blood cells [2]: only a very small raft of white blood cells | Synovial hypertrophy [2]: minimal synovial hypertrophy | Penetration of skin epithelium [3]: penetrated to the synovium | IL-1β level [4, 5]: induction | IL-6 level [4, 5]: induction | TNF-α level [4, 5]: induction | KC-GRO (KC/GRO) level ([4]; rat ankle, topical application): Attenuation | KC-GRO (KC/GRO) level ([4]; rat ankle, topical application, listed as lithium): surprisingly lessened | Effect on gout ([4]; topical application of 2% lithium carbonate, rat ankle): attenuated gout | Increase of TNF-α protein synthesis (GSK3B): > 3 fold
